Test results: ChEMBL document CHEMBL3507680, “University of Dundee, Gates Library screen for HepG2 cell viability”

test: Human HepG2 cell viability assay in 384 well format; assay type: toxicity, cell-based; design: dose 125 nL, time 70.5 hour; concentration not given beside the values; details: HepG2 cells, read-out: Inhibition

SMILES | cytotoxicity at 70.5 h
Cc1[nH]c(=O)[nH]c(=O)c1CN1CCCC(CCc2ccccc2)C1 (configuration not stated) | -5.9%
c1nc(N2CCCC2Cn2cncn2)c2sccc2n1 (configuration not stated) | -4.84%
Cc1nn(C)c(N(C)C)c1CNCc1cccc(Br)c1 | -5.91%
Cc1ccc(CNS(=O)(=O)CCCC#N)cc1F | -4.22%
O=S1(=O)CCC(CNS(=O)(=O)N2CCc3ccccc3C2)C1 (configuration not stated) | 1.82%
CCCNC(=O)CN1CCC(C(=O)Nc2cnn(CC)c2)CC1 | -10.8%
c1cnc(NCc2cncc3c2CCN(Cc2cccnc2)C3)nc1 | -5.03%
CC(C)CN1CCCC1c1ccc(C(=O)Nc2cn(C)nn2)s1 (configuration not stated) | -0.657%
CC(C)(C)n1ncc(NCC(O)c2ccccc2)c(Cl)c1=O (configuration not stated) | 25.2%
O=C1CCC2(CCCN(C(=O)C3CCCC3)C2)CN1CCc1c[nH]cn1 (configuration not stated) | -2.97%
O=C(NCC[S+]([O-])c1ccccc1)c1ccc2[nH]c(=O)[nH]c2c1 (configuration not stated) | -6.4%
COCC(=O)NS(=O)(=O)c1ccc(F)c(F)c1 | -2.65%
Cc1cccc(N(CC(=O)N2CCCCC2)C(=O)C2CCCO2)c1 (configuration not stated) | 2.3%
CS(=O)(=O)CCn1ccc(NCc2ccc(C#N)cc2)n1 | -0.713%
CN(C)c1cccc(C(=O)Nc2cnn(Cc3ccccn3)c2)c1 | -9.4%
COc1cc(N2CCC3(CCN(Cc4nccs4)CC3)C2)ncn1 | 30.8%
CC(=O)NCc1ccc(C(=O)N2CCCC2c2cnn(C)c2)s1 (configuration not stated) | -0.6%
Cn1ccc(CS(=O)(=O)Cc2cccc(F)c2)cc1=O | -11%
CCc1csc(C2CCCN(C(=O)c3ccc4[nH]nnc4c3)C2)n1 (configuration not stated) | -0.976%
Cc1noc(C)c1CCC(=O)N1CCN(Cc2cscn2)CC1 | -2.32%
c1csc(CN2CCC3(COCCN(CC4CC4)C3)C2)n1 (configuration not stated) | -3.37%
Cc1ncsc1-c1nnc(C2CCN(Cc3ccc(F)cc3)CC2)o1 | 8.74%
CC(=O)NCCNC(=O)c1nc(C2CC2)n(-c2ccccc2Cl)n1 | -13.6%

SMILES | cytotoxicity at 70.5 h
Cc1ccc(N2CCCN(C(=O)CCc3ccsc3)CC2)nn1 | -6.07%
CC(C)c1noc(CCC(=O)NC(C)c2nnc3n2CCC3)n1 (configuration not stated) | 0.884%
CS(=O)(=O)CCNC(=O)Nc1ccc(Cl)cc1-n1cccc1 | 23.7%
CCS(=O)(=O)CCNC(=O)NCc1ccccc1-n1cccn1 | 2.95%
CNC(=O)CN1CCOC(c2cccc(N)n2)C1 (configuration not stated) | -1.41%
CCN1Cc2cc3c(cc2NCCC1=O)OCO3 | 6.48%
Cc1ccc2c(c1)C1(CCN(S(C)(=O)=O)CC1)CN2C(=O)N(C)C | 4.29%
CC1(C)CC2(CCO1)NC(=O)c1cc(Br)ccc1-n1nnnc12 (configuration not stated) | 1.03%
COc1ccccc1C1CNC(=O)c2nc(-c3ncc[nH]3)[nH]c2C1 (configuration not stated) | -10.6%
COCC(NC(=O)NCc1ccc(C)c(F)c1)c1ccco1 (configuration not stated) | 1.44%
C=C(C)CN(CC)S(=O)(=O)c1c(F)cc(NC(C)=O)cc1F | -3.3%
COc1ccc2c(c1)c(-c1nc(C)ncc1CN)cn2C | 13.5%
CC(=O)N1CCN(CCNS(=O)(=O)c2ccc(F)c(F)c2)CC1 | 2.27%
COc1ccc(N2CCN(CC(O)c3cc(C)ccc3C)CC2)cc1 (configuration not stated) | -14.7%
Cc1nc(CC2CCN(Cc3ccc(CCC(C)(C)O)cc3)CC2)no1 | 13.1%
CCc1noc(CCC(=O)N[C@@H]2CC[C@@H](n3ccnc3C)[C@@H]2O)n1 | -1.14%
Fc1ccccc1CC1CCN(Cc2ccccn2)CC1 | -5.22%
Cc1nc(S(=O)(=O)CCn2cccn2)n(C2CCCCC2)c1C | -4.93%
N#CCSCCCN1CCN(C(=O)c2cccc(Cl)c2)CC1 | 2.68%
CN(C)[C@@H]1C[C@@H](CO)N(C(=O)Nc2ccc(SC(F)(F)F)cc2)C1 | 4.27%
Cc1cc(NC(=O)N2CCCC(CO)C2)nn1-c1ccccc1Cl (configuration not stated) | -1.91%
CC(=O)c1cc(CN2CCCC2c2nc3ccc(C)cc3[nH]2)cs1 (configuration not stated) | -3.73%
Cc1cccc2c1nc(CCO)n2-c1ccc(C(=O)N2CCCC2)o1 | 12.9%

SMILES | cytotoxicity at 70.5 h
O=C(NC1CC1)N1CCc2ncnc(-c3ccncc3)c2CC1 | 18.5%
O=C(c1ccncc1)N1CC[C@@H](O)[C@@H](O)[C@H](N2CCC(F)(F)CC2)C1 | -0.846%
CC(=O)N1CCC(c2cccc(NC3CCOCC3)n2)CC1 | -1.75%
O=C(NCCc1ccncc1)c1ccc(S(=O)(=O)NC2CCC2)cc1 | -9.51%
CN(C)Cc1nn(C)c2c1CN(C(=O)Nc1ccc(F)cc1)C2 | -3.55%
Cc1cccc(CS(=O)(=O)c2nnc(N3CCOCC3)s2)c1 | 0.983%
COc1ccc(C[C@H]2CN(C(=O)c3ccncc3)CC[C@@H]2OC)cc1 | 18.8%
CC(=O)N1N=C(COc2ccc(Cl)cc2)OC1c1ccccc1 (configuration not stated) | 17%
O=S(=O)(NCCn1ccc(-c2cccs2)n1)C1CC1 | -0.924%
COc1ccc(CCN2C(=O)O[C@@H]3CN(C4CCOCC4)C[C@@H]32)cc1 | 5.89%
COCCN1CCC(NCc2c(F)cccc2F)C1 (configuration not stated) | -0.0127%
Cc1nn2c(nc1=O)-c1ccccc1NC2C(=O)O (configuration not stated) | -9.44%
COCCN(CCOC)C(=O)c1ccoc1C | -6.19%
CS(=O)(=O)NCCCN1CCCC1Cc1ccccc1 (configuration not stated) | 4.23%
Cc1cc(NC(=O)NCC(O)COc2ccccc2)n(C)n1 (configuration not stated) | -11.6%
C/C(=C\c1ccccc1)CN1CCCC(c2nnc3n2CCNCC3)C1 (configuration not stated) | -6.58%
Cn1c(C2CC2)nc2c1CCN(Cc1nc3ccccc3s1)C2 | 23.2%
COc1ccccc1CNC(=O)CN(C)C(C)c1ccncn1 (configuration not stated) | -18.5%
O=C(N1CCOCC1)N1CC[C@H]2[C@@H]1CCC(=O)N2c1ccccc1 | -1.24%
Cc1ccc(C(=O)N2CC[C@@H]3[C@H]2CCC(=O)N3CC2CC2)o1 | -0.589%
CCN1CC(CN(C)Cc2nc(-c3cccc(Cl)c3)oc2C)CC1=O (configuration not stated) | -6.94%
O=C([C@H]1C[C@@H]2CCN(c3cccc(F)c3)C[C@H]2O1)N1CCCCO1 | -13.4%
CCOc1ccccc1C(=O)N1CC(=O)N(C2CCC2)CC(O)C1 (configuration not stated) | -4.81%

SMILES | cytotoxicity at 70.5 h
CC(C)S(=O)(=O)NCC1CCCN(C(=O)c2ccc(F)cc2)C1 (configuration not stated) | 9.08%
Cn1ccnc1C(=O)N1CCCC1c1ccc(C(=O)N2CCOCC2)s1 (configuration not stated) | -2.53%
Cc1ncccc1CNCC1CCN(CC(C)O)CC1 (configuration not stated) | -4.39%
COCCN1CCN(c2ccc(CN(C)C)cn2)CC1 | 16.1%
CCN(CC)C1(Cc2cc(COC)on2)COC1 | -0.489%
COc1cc(N2CC[C@@H](O)[C@@H]2Cc2ccccc2)ncn1 | -5.14%
Cc1nnc(CCNC(=O)[C@H]2CNC[C@@H](C(=O)N3CCCC3)C2)s1 | -6.7%
CNC(=O)N1Cc2cc(F)ccc2C2(CCN(C)CC2)C1 | -1.35%
CC(C)(C)OC(=O)NCCC(=O)NCC(O)c1cccc(F)c1 (configuration not stated) | -0.447%
COc1ccc(CN2CCc3c(nc(-c4ccccn4)[nH]c3=O)C2)cc1 | 13.1%
CS(=O)(=O)CCCSc1n[nH]c(-c2ccc3c(c2)CCC3)n1 | -1.26%
O=C(NCCc1nnc2n1CCC2)c1ccccc1OC1CCCC1 | -9.31%
C[C@@H]1CN(Cc2c[nH]c(CC3CCCC3)n2)CC[C@]1(C)O | -9.37%
CN1CCN(c2cc(CNC(=O)c3ccsc3)ccn2)CC1 | 1%
Cc1nnc(N2C[C@H](C(=O)NCc3ccco3)[C@@H]3CCO[C@@H]3C2)s1 | -1.66%
c1cncc(CNc2cncc(C3CCCN3)n2)c1 (configuration not stated) | -8.46%
CCNc1ccnc(N2Cc3cnc(CC(C)C)nc3C2)n1 | 18.4%
CC1=NN(CC(=O)N2CC[C@@H]3[C@@H](CCC(=O)N3CC(C)C)C2)CC1 | -1.09%
COc1ccccc1CC(=O)N(CCN1CCOCC1)Cc1ccco1 | -1.43%
CN(C)C(=O)N1CCC2(CC1)CN(Cc1ccccn1)C(=O)CO2 | 24.4%
Cc1cnc(N2CCCC3(CCCN(C)C3)C2)nc1 (configuration not stated) | -0.385%
CC1CCCCN1C(=O)Cn1cnc(C#N)n1 (configuration not stated) | -6.77%
C[C@H]1CN(C(=O)N(C)C)C[C@@]12CCN(c1ccsc1)C2=O | -8.12%

SMILES | cytotoxicity at 70.5 h
CCN(CCn1cccn1)Cc1nc(-c2ccc(F)cc2)oc1C | -6.91%
Cc1cc(C)n(CC(C)NCc2nncn2C2CCCCC2)n1 (configuration not stated) | -7.66%
CN1CCCC(CNC(=O)N2CCN(Cc3ccon3)CC2)C1 (configuration not stated) | -0.171%
CC1(C(=O)NCCN2CCCCC2)CCCN1C(=O)c1ccccc1 (configuration not stated) | -3.21%
COCCNC(=O)c1cn(C(C)(C)C)c2ncccc12 | -5.71%
COCCN(c1ccncc1)S(=O)(=O)c1cc(C)cc(F)c1 | -10.7%
CN(C)C(=O)N1C[C@@H]2CC[C@H](C1)N(C(=O)c1cccc(N(C)C)c1)C2 | -4.96%
CCC(c1ccc(F)cc1F)N1CCN(CCO)CC1 (configuration not stated) | -6.18%
CS(=O)(=O)N1C[C@@H]2COC[C@]2(COCC(=O)N2CCCC2)C1 | -5.68%
O=c1[nH]nc2c(S(=O)(=O)N3CCOCC3)cccn12 | -9.51%
CC(C)N(CCCNC(=O)C1CCCN(C(N)=O)C1)S(C)(=O)=O (configuration not stated) | -5.29%
O=C(O)CNc1cc(-c2cc(C3CC3)ncn2)c2cc[nH]c2n1 | 0.922%
CN(C)c1nccc(CNS(=O)(=O)c2cc(Cl)cc(Cl)c2)n1 | -1.35%
Cc1nn2cccnc2c1C(=O)NCc1ccccc1OC1CCC1 | -4.01%
O=C(CN(C1=NCCCC1)c1ccccc1)c1ccccc1 | 25.2%
CCS(=O)(=O)N1CCC(CSc2ccccc2)C1 (configuration not stated) | -11.1%
COc1cccc([C@@]2(O)CC[C@@H]3CN(C(=O)c4c[nH]nc4C)C[C@@H]32)c1 | -6.08%
O=C(NCCCn1cccn1)C1CCC(=O)N(Cc2ccccc2F)C1 (configuration not stated) | 4.27%
Cc1cc(CNCC2CNc3ccnn3C2)no1 (configuration not stated) | 19.3%
Cn1cc2c(n1)C(CNC(=O)Cc1ccsc1)OCC2 (configuration not stated) | -6.77%
